Laboratory results: patent US20240150377A1, “MODULATORS OF CYSTIC FIBROSIS TRANSMEMBRANE CONDUCTANCE REGULATOR” (VERTEX PHARMACEUTICALS INCORPORATED, priority 2020, published 2024)
Like-named read-outs stand apart in the source and are kept apart here.

Target: T1, CFTR (Homo sapiens, UniProt P13569, DEL508-508)
T1 construct: endogenous in cells; host or cells: primary human bronchial epithelial cells from CF subjects (F508del/MF-HBE), differentiated at air-liquid interface
Experiment: HBE assay: Ussing chamber assay of CFTR-mediated short-circuit currents
Format: cell-based
Conditions: for EC50: read-out: HBE EC50
In short: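 CFTR-mediated Isc (μA/cm²) equals the peak response to apical 20 μM forskolin minus the residual after a 20 μM each BPO/GlyH-101/CFTR inhibitor 172 cocktail, recorded in Ussing chambers at Vhold 0 mV, 37 °C, pH 7.4, with 30 μM apical amiloride. Cells were F508del/MF HBE cultures preincubated 18-24 h with corrector (concentration range or 10 μM) plus 1 μM ivacaftor in 20% human serum.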

[1] = Table 12, read-out: HBE Max Activity (%)
[2] = Table 12, read-out: HBE Activity at 10 μM (%)
[3] = Table 10, read-out: HBE Max activity (%)

T1 sequence (P13569 with tags, fused parts or gaps DEL508-508): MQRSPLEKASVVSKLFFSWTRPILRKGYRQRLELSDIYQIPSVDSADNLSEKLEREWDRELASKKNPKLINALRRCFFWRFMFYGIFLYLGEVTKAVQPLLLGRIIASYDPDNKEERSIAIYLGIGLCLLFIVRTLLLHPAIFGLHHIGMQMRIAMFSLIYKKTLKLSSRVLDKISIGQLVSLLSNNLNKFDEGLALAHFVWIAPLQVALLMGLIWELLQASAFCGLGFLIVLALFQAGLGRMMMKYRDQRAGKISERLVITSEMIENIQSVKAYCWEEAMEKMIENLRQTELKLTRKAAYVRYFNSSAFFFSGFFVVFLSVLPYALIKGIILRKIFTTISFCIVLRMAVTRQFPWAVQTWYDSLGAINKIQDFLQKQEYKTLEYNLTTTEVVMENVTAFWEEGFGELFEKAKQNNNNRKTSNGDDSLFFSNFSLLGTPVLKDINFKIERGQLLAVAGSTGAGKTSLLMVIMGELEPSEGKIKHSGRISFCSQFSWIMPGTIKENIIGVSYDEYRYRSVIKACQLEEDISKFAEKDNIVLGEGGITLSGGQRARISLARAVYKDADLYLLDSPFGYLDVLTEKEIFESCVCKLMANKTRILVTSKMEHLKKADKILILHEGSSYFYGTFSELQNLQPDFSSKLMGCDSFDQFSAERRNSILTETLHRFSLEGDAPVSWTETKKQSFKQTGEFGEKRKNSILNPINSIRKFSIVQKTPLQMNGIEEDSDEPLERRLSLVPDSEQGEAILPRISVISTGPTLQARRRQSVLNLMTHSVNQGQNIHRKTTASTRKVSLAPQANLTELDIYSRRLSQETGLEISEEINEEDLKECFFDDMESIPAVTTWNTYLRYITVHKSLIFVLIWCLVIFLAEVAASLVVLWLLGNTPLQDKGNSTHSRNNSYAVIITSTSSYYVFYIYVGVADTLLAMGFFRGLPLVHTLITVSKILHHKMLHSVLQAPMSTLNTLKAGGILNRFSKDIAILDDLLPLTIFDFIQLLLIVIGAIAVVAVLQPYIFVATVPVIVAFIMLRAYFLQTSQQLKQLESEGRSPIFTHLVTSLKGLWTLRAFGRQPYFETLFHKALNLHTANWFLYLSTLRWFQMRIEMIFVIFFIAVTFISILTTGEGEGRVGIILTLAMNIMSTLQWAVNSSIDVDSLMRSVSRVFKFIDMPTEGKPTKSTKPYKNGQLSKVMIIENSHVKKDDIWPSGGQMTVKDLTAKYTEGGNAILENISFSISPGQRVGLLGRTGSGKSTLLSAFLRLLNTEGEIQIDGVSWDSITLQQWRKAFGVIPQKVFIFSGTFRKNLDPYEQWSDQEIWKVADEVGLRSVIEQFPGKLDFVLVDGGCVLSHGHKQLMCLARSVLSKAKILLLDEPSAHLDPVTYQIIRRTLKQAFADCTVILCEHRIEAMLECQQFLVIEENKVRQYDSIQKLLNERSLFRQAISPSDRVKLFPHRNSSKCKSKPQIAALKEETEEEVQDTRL

## COC[C@@H]1CCCN1c1cncc(CN2C(=O)c3cccc(c3)S(=O)(=O)Nc3nc(cc(-c4c(C)cccc4C)n3)OC[C@H]2CC(C)(C)C)n1 [Compound 273]
Table 12
  EC50: < 1000 nM
[1]
  Emax: > 60%

## COC[C@H]1CCCN1c1cncc(CN2C(=O)c3cccc(c3)S(=O)(=O)Nc3nc(cc(-c4c(C)cccc4C)n3)OC[C@H]2CC(C)(C)C)n1 [Compound 274]
Table 12
  EC50: < 1000 nM
[1]
  Emax: > 60%

## COC[C@@H]1CCCN1c1cccc(CN2C(=O)c3cccc(c3)S(=O)(=O)Nc3nc(cc(-c4c(C)cccc4C)n3)OC[C@H]2CC(C)(C)C)n1 [Compound 275]
Table 12
  EC50: < 1000 nM
[1]
  Emax: > 60%

## COC[C@H]1CCCN1c1cccc(CN2C(=O)c3cccc(c3)S(=O)(=O)Nc3nc(cc(-c4c(C)cccc4C)n3)OC[C@H]2CC(C)(C)C)n1 [Compound 276]
Table 12
  EC50: < 1000 nM
[1]
  Emax: > 60%

## Cc1cccc(C)c1-c1cc(O)nc(NS(=O)(=O)c2cccc(C(=O)N(Cc3cccc(N4CCC[C@]4(C)C(=O)O)n3)[C@@H](C)CC(C)(C)C)c2)n1 [Compound 277]
[2]
  activation at 10 µM: > 600%

## Cc1cccc(C)c1-c1cc2nc(n1)NS(=O)(=O)c1cccc(c1)C(=O)N(Cc1cccc(N3CCC[C@@]3(C)C(=O)O)n1)[C@H](CC(C)(C)C)CO2 [Compound 278]
[2]
  activation at 10 µM: > 600%

## Cc1cccc(C)c1-c1cc2nc(n1)NS(=O)(=O)c1cccc(c1)C(=O)N(Cc1cccc(N3CCC[C@H]3CO)n1)[C@H](CC(C)(C)C)CO2 [Compound 279]
Table 12
  EC50: < 1000 nM
[1]
  Emax: > 60%

## Cc1cccc(C)c1-c1cc2nc(n1)NS(=O)(=O)c1cccc(c1)C(=O)N(Cc1cccc(N3CCC[C@@H]3CO)n1)[C@H](CC(C)(C)C)CO2 [Compound 280]
Table 12
  EC50: < 1000 nM
[1]
  Emax: > 60%

## Cc1cccc(C)c1-c1cc2nc(n1)NS(=O)(=O)c1cccc(c1)C(=O)N(Cc1cncc(N(C)CC(C)(C)C)c1)[C@H](CC(C)(C)C)CO2 [Compound 281]
[2]
  activation at 10 µM: > 600%

## Cc1cccc(C)c1-c1cc2nc(n1)NS(=O)(=O)c1cccc(c1)C(=O)N(Cc1cncc(N3CCCC3(C)C)c1)[C@H](CC(C)(C)C)CO2 [Compound 282]
[2]
  activation at 10 µM: > 600%

## Cc1cccc(C)c1-c1cc2nc(n1)NS(=O)(=O)c1cccc(c1)C(=O)N(Cc1cncc(N3CCC[C@@H]3C)c1)[C@H](CC(C)(C)C)CO2 [Compound 283]
[2]
  activation at 10 µM: > 600%

## Cc1cccc(C)c1-c1cc2nc(n1)NS(=O)(=O)c1cccc(c1)C(=O)N(Cc1cncc(N3CCC[C@H]3C)c1)[C@H](CC(C)(C)C)CO2 [Compound 284]
[2]
  activation at 10 µM: > 600%

## Cc1cccc(C)c1-c1cc2nc(n1)NS(=O)(=O)c1cccc(c1)C(=O)N(Cc1cncc(N3CCC(C)(C)C3)c1)[C@H](CC(C)(C)C)CO2 [Compound 285]
Table 12
  EC50: < 1000 nM
[1]
  Emax: > 60%

## Cc1cccc(C)c1-c1cc2nc(n1)NS(=O)(=O)c1cccc(c1)C(=O)N(Cc1cncc(C3CCCCC3)c1)[C@H](CC(C)(C)C)CO2 [Compound 286]
Table 12
  EC50: < 1000 nM
[1]
  Emax: > 60%

## Cc1cccc(C)c1-c1cc2nc(n1)NS(=O)(=O)c1cccc(c1)C(=O)N([C@@H](C)c1ccc(-c3cn[nH]c3)cc1)[C@H](CC(C)(C)C)CO2 [Compound 287]
[3]
  Emax: > 60%

## Cc1cccc(C)c1-c1cc2nc(n1)NS(=O)(=O)c1cccc(c1)C(=O)N(Cc1ccc(C3=CCN=N3)cc1)[C@H](CC(C)(C)C)CO2 [Compound 289]
[3]
  Emax: > 60%

## Cc1cccc(C)c1-c1cc2nc(n1)NS(=O)(=O)c1cccc(c1)C(=O)N(Cc1ccc(-c3cc[nH]n3)cc1)[C@H](CC(C)(C)C)CO2 [Compound 290]
Table 10, read-out: HBE activity at 10 (μM) (%)
  activation at 10 µM: > 60%

## Cc1cccc(C)c1-c1cc2nc(n1)NS(=O)(=O)c1cccc(c1)C(=O)N(Cc1ccc(-c3cnoc3)cn1)[C@H](CC(C)(C)C)CO2 [Compound 291]
[3]
  Emax: > 60%

## Cc1cccc(C)c1-c1cc2nc(n1)NS(=O)(=O)c1cccc(c1)C(=O)N(Cc1ccc(-c3c(C)noc3C)cc1)[C@H](CC(C)(C)C)CO2 [Compound 292]
[3]
  Emax: > 60%

## Cc1cccc(C)c1-c1cc2nc(n1)NS(=O)(=O)c1cccc(c1)C(=O)N([C@@H](C)c1ccc(-c3c(C)n[nH]c3C)cc1)[C@H](CC(C)(C)C)CO2 [Compound 293]
Table 10
  EC50: < 1000 nM
[3]
  Emax: > 60%
